Data taken from patent publication US5776685A, “Protein kinase C assay” (Joslin Diabetes Center, priority 1996, dated 1998).

Tests used:
[1] = system: bovine PKC alpha; experiment: PKC catalytic activity in vitro (phosphorylation of [ser25]PKC19-31 in detergent cell extracts); format: biochemical; conditions: for PMA and Ca^2+ stimulated mutant PKC activity: Ca^2+: Ca^2+ stimulation of in vitro catalytic activity; for PMA and Ca^2+ stimulated mutant PKC activity: PMA: PMA stimulation, common symbol for in vitro catalytic activity and PMA-mediated increase of cell doubling time; for PMA and Ca^2+ stimulated mutant PKC activity: -: no stimulus (basal), common symbol for in vitro catalytic activity and cell doubling time response; for activation of PKC alpha in vitro / inhibition of PKC alpha catalytic activity: PKC alpha expressed in yeast
Description: FIG. 4 is a graph which compares PKC mutant and wild type catalytic activities in vitro. […] Catalytic activity was stimulated by combinations of phosphatidylserine (PS), the phorbol ester PMA and calcium ions (Ca^2+). PS, open; PMA+PS, solid; Ca^2+ +PS, diagonally striped.
Cell lysis. About 6×10^8 expressing cells were washed in PBS and were resuspended in 1 ml lysis buffer containing 1% Triton X100, 50 mM Hepes pH 7.4, 15-mM NaC1, 5 mM EDTA, 5 mM EGTA, 10 μg/ml pepstatin, 40 μg/ml leupeptin, 10 μg/ml aprotinin and 200 μg/ml PMSF. Cell suspensions mixed with the same volume of acid washed glass beads (450-500 μm) were lysed mechanically by six 30 second vortexing steps interrupted by cooling on ice for at least 30 second in 50 ml screw cap polypropylene tubes. The lysate was cleared by 4,000 g centrifugation for 15 minutes at 4 degrees C and stored at […] for up to several weeks.
PKC catalytic activity. […] Phosphatidylserine in chloroform, with or without PMA was evaporated under N2 to dryness, resuspended in 20 mM Tris pH 7.5, mixed and sonicated at 4 degrees C for 45 seconds before use. To terminate the reaction the sample was placed on phosphocellulose paper (Whatman P81) which was repeatedly washed in 75 mM phosphoric acid. Bound radioactivity was determined by liquid scintillation spectroscopy.

[2] = system: bovine PKC alpha; experiment: [3H]PDBu binding to yeast spheroplasts expressing PKC alpha forms; conditions: 14 nM [3H]PDBu
Description: FIG. 3 is a graph of phorbol ester binding to cells expressing PKC alpha wild type and mutant proteins.
Phorbol ester binding. About 6×10^8 expressing cells were washed twice in 10 mM K-phosphate buffer pH 7.0, 20 mM EDTA, once in 1M sorbitol and were resuspended in 10 ml 10 mM K-phosphate buffer pH 7.0, 1.1M sorbitol, 0.5 mM CaC12. Cells were incubated with 1 U glusulase (beta-glucuronidase/arylsulfatase from Helix pomatia, Boehringer Mannheim) for about 1 hour under shaking at 30 degrees C to remove the cell wall until test cell suspensions cleared in H2 O due to cell lysis.
Both were about 13-fold elevated over background levels of control cells. Similar findings have been reported for PKC overexpression in transfected mammalian fibroblasts. […] The internal deletion of aa 172-225 led to phorbol ester binding levels reduced by 60% compared to normal PKC alpha, a potential consequence of the removal of parts of the C2 domain.

[3] = system: Saccharomyces cerevisiae strain 334 expressing bovine PKC alpha; experiment: 45Ca2+ uptake into yeast cells expressing PKC alpha forms; format: cell-based
Description: FIG. 5 is a graph of the modulation of extracellular Ca2+uptake by PKC alpha wild type and mutants.
^45 Ca^2 + uptake. Expressing yeast cells after 16 h in 2% galactose medium were washed with PBS when reaching 0.5 O.D.600. 10^7 cells were suspended in 100 μl of 50 mM MES pH 6.5, 5 mM MgSO4 and incubated with 1 μM PMA for 1 h at 30 degrees C under shaking on 96-well plates. Subsequently uptake of 2 μCi 45 Ca2+ at 300 μM CaCl2 was measured for 2 hours. Cells were rapidly transferred to Multiscreen filtration microtiter plates (Millipore) and washed four times with 200 μl of 10 mM MES, 10 mM Tris, 35 mM CaC12 pH 6.0. Filters were dried and cell-associated radioactivity was determined by liquid scintillation spectroscopy.
Ca^2+ influx has been reported in response to PKC activation in a variety of eukaryotic cells such as Nitella syncarpa plasmalemma, Aplysia bag cell neurons, rat ventricular myocytes and rat pituitary cells. To test whether the measured catalytic activities and the yeast phenotype correlate with other biological responses mediated by PKC, ^45 Ca^2+ uptake into expressing cells was determined after PMA stimulation. […] These responses are consistent with the catalytic activities and phenotypic responses of the mutants: elevated basal activity of ND153, full and reduced phorbol ester-stimulated activity of normal PKC alpha and D172-225, respectively, and lack of activity for CD26.

[4] = system: Saccharomyces cerevisiae strain 334 expressing bovine PKC alpha; experiment: Cell doubling time of yeast cultures expressing PKC alpha wild type and mutant cDNAs; format: cell-based
Description: FIG. 2 is a graph of cell doubling time of yeast cultures expressing PKC alpha wild type and mutant cDNAs. Freshly saturated cultures expressing control plasmids (Cont.), normal PKC alpha (PKCa) or deletion mutants D172-225, ND153 or CD26 were diluted to low cell densities. Cell growth was followed on a roller at 30 degrees C to measurable cell densities of the logarithmic growth phase at 0.2-0.6 O.D. 600. […] Average doubling times were calculated.
Yeast strains and culture conditions. PKC expression plasmids and YEp51 or YEp52 as controls were introduced into Saccharomyces cerevisiae strain 334 [MAT alpha, pep 4-3, prb1-122, ura 3-52; leu2-3, 112, reg1-501, gal1]by lithium acetate transformation See e.g., Ito et al. 1983, J. Bacterial. 153: 163. Cells were routinely grown at 30 degrees C on a culture roller or shaker in liquid culture or on 1.5% agar plates. The synthetic medium contained 2% glucose and was leucine-free to select for stable propagation of the expression plasmids. Expressing yeast colonies were identified phenotypically by replica plating on medium containing or lacking PMA. Phenol extracts of crude cell lysates were prepared to re-transform Escherichia coli DH5 alpha. PKC mutants were characterized by DNA sequencing and defined plasmids were re-introduces into S. cerevisiae 334. These strains were used in all experiments shown. 50 ml cultures were routinely inoculated from freshly saturated cultures and grown for 16 h to an optical density of 0.4 at O.D.600.
Cell doubling times were measured by O.D.600 reading of liquid cultures in the presence of 2% galactose as shown in FIG. 2 to test whether they correlate with the specific phenotypes (colony size) caused by normal mutant PKC alpha. […] A normal 4 hours doubling time was measured for all constructs in the absence of galactose.

[5] = system: Saccharomyces cerevisiae strain 334 expressing bovine PKC alpha; experiment: Phenotypic screen of PKC alpha mutant activity by yeast colony size on agar plates; format: cell-based; conditions: 2% galactose, independent of phorbol ester
Description: The phenotypic screen of PKC alpha mutant activity by yeast colony size was performed as follows. […] Plates (9 cm diameter) were photograph after 3 days.
Galactose stimulation of cDNA expression resulted for some PKC forms in specific, decreased yeast colony sizes which were either dependent on or independent of phorbol ester activation after 3 days. […] Microscopically small colonies expressing ND153 grew to visible sizes with rates independently of PMA. Colonies expressing PKC alpha grew even more slowly to visible sizes during continued incubation in the presence of PMA.

| Compound | PMA and Ca^2+ stimulated mutant PKC activity: Ca^2+ [1] | PMA and Ca^2+ stimulated mutant PKC activity: PMA [1] | PMA and Ca^2+ stimulated mutant PKC activity: - [1] | activation of PKC alpha in vitro [1] | inhibition of PKC alpha catalytic activity [1] | other results |
| --- | --- | --- | --- | --- | --- | --- |
| CD96: PKC alpha deletion mutant lacking 96 carboxyl terminal aa | - | - | - |  |  |  |
| ND158: PKC alpha deletion mutant lacking 158 amino terminal aa | ++ | + | + |  |  |  |
| CC1=C[C@H]2[C@@]3(O)[C@H](C)C[C@]4(OC(=O)Cc5ccccc5)[C@H]([C@@H]3C=C(CO)C[C@]2(O)C1=O)C4(C)C [dPP, 12-deoxyphorbol 1 3-phenylacetate, reference compound] |  |  |  | efficiently activated |  |  |
| ND153: PKCa deletion of aa 1-153 | ++ | + | + |  |  | [3H]PDBu binding level over background levels of control cells [2]: virtually background; stimulation of catalytic activity by phorbol ester ([1]; PMA + phosphatidylserine): PMA-unresponsive; catalytic activity in the presence of phosphatidylserine alone (elevated level) ([1]; phosphatidylserine alone): 10 fold; Ca2+ uptake after PMA stimulation over the control cell background ([3]; 1 μM PMA): unaffected by phorbol ester; increase in Ca^2+ uptake (basal) ([3]; without PMA stimulation, versus control cells): ~3 fold; average cell doubling time ([4]; absence of phorbol ester, 2% galactose, synthetic minimal medium, CD26 and ND153 values phorbol ester-independent): 12 h; yeast colony size / phenotype [5]: microscopically small colonies independent of phorbol ester activation |
| CN(C)c1ccc2cc3ccc(N(C)C)cc3nc2c1 [acridine orange, reference compound] |  |  |  |  | efficiently inhibited |  |
| Cc1cc(N)c2ccccc2[n+]1CCCCCCCCCC[n+]1c(C)cc(N)c2ccccc21 [dequalinium, reference compound] |  |  |  |  | efficiently inhibited |  |
| polymyxin B [reference compound] |  |  |  |  | efficiently inhibited |  |
| C=C(C)C12OC3(c4ccccc4)OC1C1C4OC4(CO)C(O)C4(O)C(=O)C(C)=CC4C1(O3)C(C)C2OC(=O)/C=C/C=C/c1ccccc1 (stereo not shown) [mezerein, reference compound] |  |  |  | efficiently activated |  |  |
| ND84: PKC alpha deletion mutant lacking 84 amino terminal aa | ++ | + | + |  |  |  |
| CCCCCCCCCCCCC/C=C/[C@@H](O)[C@@H](N)CO[C@@H]1O[C@H](CO)[C@H](O)[C@H](O)[C@H]1O [psychosine, reference compound] |  |  |  |  | efficiently inhibited |  |
| CD139: PKC alpha deletion mutant lacking 139 carboxyl terminal aa | - | - | - |  |  |  |
| CC1=CC23C(=O)C(C=C(COC(=O)c4ccccc4)C(O)C2(O)C1OC(=O)c1ccccc1)C1C(CC3C)C1(C)C (stereo not shown) [ID, ingenol 3,20-dibenzoate, reference compound] |  |  |  | efficiently activated |  |  |
| CD149: PKC alpha deletion mutant lacking 149 carboxyl terminal aa | - | - | - |  |  |  |
| CN1CCN(CCCN2c3ccccc3Sc3ccc(C(F)(F)F)cc32)CC1 [trifluoperazine, reference compound] |  |  |  |  | efficiently inhibited |  |
| CCCCCCCCCCN(C)c1cc(CO)cc(NC(C)=O)c1 [ADMB, 3-(N-acetylamino)-5(N-decyl-N-methylamino) benzyl alcohol, reference compound] |  |  |  | efficiently activated |  |  |
| CC(C)[C@H]1C(=O)N[C@H](CO)Cc2c[nH]c3cccc(c23)N1C [(-)-indolactam V, reference compound] |  |  |  | efficiently activated |  |  |
| CD110: PKC alpha deletion mutant lacking 110 carboxyl terminal aa | - | - | - |  |  |  |
| ND188: PKC alpha deletion mutant lacking 118 amino terminal aa (printed ND188 in Table 1) | ++ | + | + |  |  |  |
| CCCCCCCCCCCCCC(=O)O[C@@H]1[C@@H](C)[C@@]2(O)[C@@H](C=C(CO)C[C@]3(O)C(=O)C(C)=C[C@@H]23)[C@@H]2C(C)(C)[C@]12OC(C)=O [PMA, phorbol-12-myristate-13-acetate, reference compound] |  |  |  | efficiently activated |  | response of wild-type yeast cells (doubling time, colony size) ([4]; wild-type yeast cells without mammalian PKC, 1 μM PMA): did not respond |
| CCCCCCCCCCNc1cc(CO)c2cc[nH]c2c1 [DHI, 6-(N-decylamino)-4-hydroxymethylindole, reference compound] |  |  |  | efficiently activated |  |  |
| ND 140: PKC alpha deletion mutant lacking 140 amino terminal aa | ++ | + | + |  |  |  |
| CC1CNCCN1S(=O)(=O)c1cccc2cnccc12 (racemic) [H-7, reference compound] |  |  |  |  | efficiently inhibited |  |
| COc1ccc2c(c[n+](C)c3c4cc5c(cc4ccc23)OCO5)c1OC [chelerythrine, reference compound] |  |  |  |  | efficiently inhibited |  |
